{
  "source": "patent US20230204599A1",
  "about": "“TRIAGING METHOD USING CELL FREE NUCLEOSOME LEVELS” (Belgian Volition SRL (BE/BE), priority 2020, published 2023)",
  "key": {"[1]": {"details": "cited from earlier work"}, "sepsis induced in mice": {"test_system": "sepsis induced in mice", "details": "cited from earlier work"}, "[2]": {"test_system": "white cells in fresh healthy whole blood", "experiment": "NETs formation induced in fresh healthy whole blood, H3.1-nucleosome ELISA and Bioanalyzer electrophoresis of plasma", "assay_type": "cell-based, human", "details": "2 healthy volunteers", "from_the_text": "We collected whole blood samples from two healthy volunteers, in whom low levels of circulating NET material would be expected, in EDTA plasma blood collection tubes and in heparin plasma blood collection tubes. The two EDTA plasma blood collection tubes were centrifuged immediately to separate the cellular and plasma fractions to minimise contamination by large chromatin (including NET material) and the plasma was transferred to cryotubes and frozen. The two heparin plasma blood collection tubes were incubated at room temperature for 1 hour with gentle rotation of the tubes. The tubes were then centrifuged and the plasma was transferred to cryotubes and frozen.\nThe samples were assayed for nucleosomes containing histone isoform H3.1 (H3.1-nucleosomes) using an ELISA procedure in duplicate. In brief, 20 μl of sample were added to a microtiter well containing magnetic particles precoated with an anti-histone H3.1 antibody. The sample was incubated and the magnetic particles were isolated and washed. An anti-nucleosome antibody directed to bind to a conformational nucleosome epitope conjugated to horse radish peroxidase was added to the magnetic particles. The particles were incubated and then isolated and washed. The bound anti-nucleosome antibody was measured using a coloured substrate reaction. […]"}, "[3]": {"details": "single 25 mg/m^2 bolus intravenous dose"}},
  "data": [
    {"molecule": "COc1cccc2c1C(=O)c1c(O)c3c(c(O)c1C2=O)C[C@@](O)(C(=O)CO)C[C@@H]3O[C@H]1C[C@H](N)[C@H](O)[C@H](C)O1", "note": "[doxorubicin]", "values": [
      {"measurement": "serum concentration", "setting": "[1]; [3]", "value": 10000, "unit": "ng/mL"},
      {"measurement": "time serum level remains above 3 μg/ml", "setting": "[1]; [3]", "value": "around 4 days"}
    ]},
    {"molecule": "COc1cccc2c1C(=O)c1c(O)c3c(c(O)c1C2=O)C[C@@](O)(C(=O)CO)C[C@@H]3O[C@H]1C[C@H](N)[C@@H](O)[C@H](C)O1", "note": "[epirubicin]", "values": [
      {"measurement": "survival", "setting": "sepsis induced in mice; lethal sepsis by cecal ligation and puncture, death in 100% of mice within 72 hours without treatment", "value": 75, "unit": "%"},
      {"measurement": "inflammation measured by circulating inflammatory biomarkers", "setting": "sepsis induced in mice; septic mice", "value": "reduction in inflammation"}
    ]},
    {"molecule": "DNase", "values": [
      {"measurement": "half-life", "setting": "[1]; in vivo, iv", "value": "3 to 4", "unit": "h"}
    ]},
    {"molecule": "heparin", "values": [
      {"measurement": "NET material level in plasma (H3.1-nucleosome ELISA)", "setting": "[2]; blood collection tubes incubated 1 hour at room temperature", "value": "high"},
      {"measurement": "level of NET material in plasma (DNA fragment size, Bioanalyzer)", "setting": "[2]; retention time approximately 110 seconds", "value": "high"}
    ]}
  ]
}
